Measured values reported in US20100137449A1, “SUBSTITUTED 1,3-CYCLOPENTADIONE MULTI-TARGET PROTEIN KINASE MODULATORS OF CANCER, ANGIOGENESIS AND THE INFLAMMATORY PATHWAYS ASSOCIATED THEREWITH” (METAPROTEOMICS, LLC, priority 2007, published 2010).

Key:
Test in all cases: KinaseProfiler Assay
Aurora-A(h) = biological target: T1, Aurora-A(h) (Homo sapiens, UniProt O14965)
T1 sequence (O14965 1-403): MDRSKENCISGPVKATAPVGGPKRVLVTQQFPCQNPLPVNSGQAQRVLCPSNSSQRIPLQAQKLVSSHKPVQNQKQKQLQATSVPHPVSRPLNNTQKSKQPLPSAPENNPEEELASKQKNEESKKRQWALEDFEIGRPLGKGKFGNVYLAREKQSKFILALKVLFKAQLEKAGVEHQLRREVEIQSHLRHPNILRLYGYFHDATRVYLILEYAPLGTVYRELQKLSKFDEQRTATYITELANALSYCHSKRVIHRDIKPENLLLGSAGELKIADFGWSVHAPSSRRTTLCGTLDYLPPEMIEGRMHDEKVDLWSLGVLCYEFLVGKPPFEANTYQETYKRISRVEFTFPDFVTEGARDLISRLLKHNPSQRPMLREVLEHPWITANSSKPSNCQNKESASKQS

CDK6/cydinD3(h) = CDK6/cydinD3(h) (Homo sapiens, UniProt Q00534)
CHK2(h) = CHK2(h) (Homo sapiens, UniProt O96017)
CHK2(h), sequence (O96017 whole entry): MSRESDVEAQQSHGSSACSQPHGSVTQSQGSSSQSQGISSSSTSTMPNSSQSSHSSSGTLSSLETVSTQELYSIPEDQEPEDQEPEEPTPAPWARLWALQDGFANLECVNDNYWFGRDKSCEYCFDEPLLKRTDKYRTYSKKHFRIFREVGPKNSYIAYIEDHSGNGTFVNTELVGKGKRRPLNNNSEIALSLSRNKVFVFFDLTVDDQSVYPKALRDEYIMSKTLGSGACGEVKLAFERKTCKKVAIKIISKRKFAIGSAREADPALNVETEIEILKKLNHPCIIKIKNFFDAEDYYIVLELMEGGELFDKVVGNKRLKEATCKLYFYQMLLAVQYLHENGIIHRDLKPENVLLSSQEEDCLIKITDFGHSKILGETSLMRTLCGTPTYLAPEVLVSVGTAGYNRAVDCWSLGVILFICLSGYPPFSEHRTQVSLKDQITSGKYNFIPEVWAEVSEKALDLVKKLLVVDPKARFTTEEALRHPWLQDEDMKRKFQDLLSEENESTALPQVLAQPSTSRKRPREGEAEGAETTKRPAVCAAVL

FGFR2(N549H)(h) = FGFR2(N549H)(h) (Homo sapiens, UniProt P21802, N549H)
FGFR3(h) = FGFR3(h) (Homo sapiens, UniProt P22607)
MAPK1(h), ERK1 = MAPK1(h), ERK1 (Homo sapiens, UniProt P27361)
MAPK1(h), ERK1, sequence (P27361 whole entry): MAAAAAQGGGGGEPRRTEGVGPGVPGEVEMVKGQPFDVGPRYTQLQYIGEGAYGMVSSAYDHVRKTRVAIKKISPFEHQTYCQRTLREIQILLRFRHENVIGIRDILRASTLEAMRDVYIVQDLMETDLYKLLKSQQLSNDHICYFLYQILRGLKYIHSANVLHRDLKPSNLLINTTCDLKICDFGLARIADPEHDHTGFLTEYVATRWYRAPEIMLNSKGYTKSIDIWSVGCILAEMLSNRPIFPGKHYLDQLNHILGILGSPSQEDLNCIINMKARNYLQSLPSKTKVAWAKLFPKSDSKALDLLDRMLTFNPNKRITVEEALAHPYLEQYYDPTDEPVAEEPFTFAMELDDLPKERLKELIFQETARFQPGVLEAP

MAPKAP-K3(h) = MAPKAP-K3(h) (Homo sapiens, UniProt Q16644)
MELK(h) = MELK(h) (Homo sapiens, UniProt Q14680)
MELK(h), sequence (Q14680 whole entry): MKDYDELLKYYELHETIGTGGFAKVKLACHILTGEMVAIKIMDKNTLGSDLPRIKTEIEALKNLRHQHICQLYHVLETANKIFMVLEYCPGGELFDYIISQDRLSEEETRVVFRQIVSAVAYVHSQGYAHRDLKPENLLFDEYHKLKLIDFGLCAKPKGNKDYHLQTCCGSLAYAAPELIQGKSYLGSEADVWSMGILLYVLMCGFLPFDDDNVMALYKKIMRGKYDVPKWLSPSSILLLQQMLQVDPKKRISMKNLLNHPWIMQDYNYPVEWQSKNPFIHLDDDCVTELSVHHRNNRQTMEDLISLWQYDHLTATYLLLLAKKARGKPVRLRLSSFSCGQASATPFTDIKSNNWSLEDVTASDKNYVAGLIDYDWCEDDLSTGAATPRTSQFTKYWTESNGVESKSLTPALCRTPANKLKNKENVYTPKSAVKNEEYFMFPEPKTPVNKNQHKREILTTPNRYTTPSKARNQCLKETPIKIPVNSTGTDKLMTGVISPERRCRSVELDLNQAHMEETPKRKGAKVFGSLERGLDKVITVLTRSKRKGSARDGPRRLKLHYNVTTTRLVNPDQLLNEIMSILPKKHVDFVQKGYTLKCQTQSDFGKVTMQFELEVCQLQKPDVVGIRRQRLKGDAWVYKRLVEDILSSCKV

NEK2(h) = biological target: T2, NEK2(h) (Homo sapiens, UniProt P51955)
T2 sequence (P51955 1-445): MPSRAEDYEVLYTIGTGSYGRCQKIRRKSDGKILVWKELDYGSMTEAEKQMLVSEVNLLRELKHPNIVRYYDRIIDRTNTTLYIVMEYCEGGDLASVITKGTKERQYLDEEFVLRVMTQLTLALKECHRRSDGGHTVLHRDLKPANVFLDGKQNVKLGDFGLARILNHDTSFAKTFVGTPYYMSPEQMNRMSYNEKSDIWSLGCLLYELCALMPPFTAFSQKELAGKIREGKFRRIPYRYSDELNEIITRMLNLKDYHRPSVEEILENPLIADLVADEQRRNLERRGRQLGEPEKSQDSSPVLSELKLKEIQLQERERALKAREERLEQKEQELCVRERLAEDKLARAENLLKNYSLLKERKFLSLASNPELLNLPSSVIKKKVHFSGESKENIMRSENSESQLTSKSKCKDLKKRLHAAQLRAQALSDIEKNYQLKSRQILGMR

PKBβ(h) = PKBβ(h) (Homo sapiens, UniProt P31751)
Plk3(h) = Plk3(h) (Homo sapiens, UniProt Q9H4B4)
Plk3(h), sequence (Q9H4B4 whole entry): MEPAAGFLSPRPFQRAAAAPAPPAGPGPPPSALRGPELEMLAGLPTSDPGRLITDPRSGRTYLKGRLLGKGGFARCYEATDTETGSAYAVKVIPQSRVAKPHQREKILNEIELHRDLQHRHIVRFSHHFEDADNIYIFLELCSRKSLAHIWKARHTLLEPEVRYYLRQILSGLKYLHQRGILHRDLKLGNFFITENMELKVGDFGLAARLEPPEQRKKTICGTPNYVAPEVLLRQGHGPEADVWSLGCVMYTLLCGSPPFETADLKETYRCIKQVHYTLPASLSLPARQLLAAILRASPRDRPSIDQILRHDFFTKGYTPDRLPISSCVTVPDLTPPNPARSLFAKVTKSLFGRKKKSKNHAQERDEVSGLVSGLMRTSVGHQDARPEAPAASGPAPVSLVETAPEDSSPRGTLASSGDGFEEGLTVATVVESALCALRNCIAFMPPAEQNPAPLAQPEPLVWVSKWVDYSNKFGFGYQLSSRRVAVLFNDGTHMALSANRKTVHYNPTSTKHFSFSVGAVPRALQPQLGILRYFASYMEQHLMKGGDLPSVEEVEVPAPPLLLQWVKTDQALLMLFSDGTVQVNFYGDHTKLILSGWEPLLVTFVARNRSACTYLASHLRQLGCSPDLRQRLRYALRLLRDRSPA

Ret(V804M)(h) = Ret(V804M)(h) (Homo sapiens, UniProt P07949, V804M)
Ret(V804M)(h), sequence (P07949 29-1114 V804M): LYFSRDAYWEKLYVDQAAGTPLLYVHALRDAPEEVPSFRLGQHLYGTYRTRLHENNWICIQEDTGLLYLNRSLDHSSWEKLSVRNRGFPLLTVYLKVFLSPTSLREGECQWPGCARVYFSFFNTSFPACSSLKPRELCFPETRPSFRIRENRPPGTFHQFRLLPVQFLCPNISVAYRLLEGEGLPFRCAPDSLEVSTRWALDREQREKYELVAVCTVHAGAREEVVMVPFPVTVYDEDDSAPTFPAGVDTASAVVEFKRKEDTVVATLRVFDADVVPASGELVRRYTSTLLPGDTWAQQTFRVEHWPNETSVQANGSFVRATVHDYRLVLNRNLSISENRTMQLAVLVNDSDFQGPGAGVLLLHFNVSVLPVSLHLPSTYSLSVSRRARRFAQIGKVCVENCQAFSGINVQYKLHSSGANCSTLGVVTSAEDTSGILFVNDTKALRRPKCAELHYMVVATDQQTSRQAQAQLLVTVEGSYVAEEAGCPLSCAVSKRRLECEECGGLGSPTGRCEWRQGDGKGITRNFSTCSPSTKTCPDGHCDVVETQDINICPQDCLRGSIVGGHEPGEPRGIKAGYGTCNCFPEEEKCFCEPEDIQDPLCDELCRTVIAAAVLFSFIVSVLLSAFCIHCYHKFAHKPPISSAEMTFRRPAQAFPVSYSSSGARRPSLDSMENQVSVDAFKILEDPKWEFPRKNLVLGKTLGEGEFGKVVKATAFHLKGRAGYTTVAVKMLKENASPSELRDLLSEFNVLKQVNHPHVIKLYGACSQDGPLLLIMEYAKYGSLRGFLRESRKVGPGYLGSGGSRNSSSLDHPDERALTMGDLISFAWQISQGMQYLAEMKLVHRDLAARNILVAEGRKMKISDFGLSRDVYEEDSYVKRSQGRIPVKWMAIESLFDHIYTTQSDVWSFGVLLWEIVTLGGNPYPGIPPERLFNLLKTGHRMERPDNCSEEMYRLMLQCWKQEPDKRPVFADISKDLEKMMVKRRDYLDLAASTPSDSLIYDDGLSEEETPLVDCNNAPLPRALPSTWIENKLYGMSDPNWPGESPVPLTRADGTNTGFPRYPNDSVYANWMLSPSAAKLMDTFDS

SIK(h) = SIK(h) (Homo sapiens, UniProt P57059)
SIK(h), sequence (P57059 whole entry): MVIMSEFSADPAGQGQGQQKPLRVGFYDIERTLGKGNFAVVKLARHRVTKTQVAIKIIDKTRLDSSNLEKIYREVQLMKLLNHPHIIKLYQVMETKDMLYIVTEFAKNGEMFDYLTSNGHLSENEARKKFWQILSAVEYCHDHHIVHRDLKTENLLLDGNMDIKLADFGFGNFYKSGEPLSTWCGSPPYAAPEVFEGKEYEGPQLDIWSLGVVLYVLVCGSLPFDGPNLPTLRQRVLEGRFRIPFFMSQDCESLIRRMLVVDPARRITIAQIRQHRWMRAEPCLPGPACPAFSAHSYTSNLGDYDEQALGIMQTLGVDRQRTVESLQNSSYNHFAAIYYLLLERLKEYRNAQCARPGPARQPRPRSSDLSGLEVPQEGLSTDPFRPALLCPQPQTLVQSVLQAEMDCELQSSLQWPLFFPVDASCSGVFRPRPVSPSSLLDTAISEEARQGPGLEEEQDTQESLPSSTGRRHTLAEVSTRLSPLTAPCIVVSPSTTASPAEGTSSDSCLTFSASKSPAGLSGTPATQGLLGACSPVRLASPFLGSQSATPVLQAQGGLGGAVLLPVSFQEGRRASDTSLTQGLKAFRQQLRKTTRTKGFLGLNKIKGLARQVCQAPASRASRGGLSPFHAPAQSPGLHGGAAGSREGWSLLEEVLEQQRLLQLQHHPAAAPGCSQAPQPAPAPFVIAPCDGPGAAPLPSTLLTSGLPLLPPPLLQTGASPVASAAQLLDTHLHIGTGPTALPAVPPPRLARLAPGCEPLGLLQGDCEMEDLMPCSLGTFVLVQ

SRPK1(h) = SRPK1(h) (Homo sapiens, UniProt Q96SB4)
TLK2(h) = TLK2(h) (Homo sapiens, UniProt Q86UE8)
TLK2(h), sequence (Q86UE8 whole entry): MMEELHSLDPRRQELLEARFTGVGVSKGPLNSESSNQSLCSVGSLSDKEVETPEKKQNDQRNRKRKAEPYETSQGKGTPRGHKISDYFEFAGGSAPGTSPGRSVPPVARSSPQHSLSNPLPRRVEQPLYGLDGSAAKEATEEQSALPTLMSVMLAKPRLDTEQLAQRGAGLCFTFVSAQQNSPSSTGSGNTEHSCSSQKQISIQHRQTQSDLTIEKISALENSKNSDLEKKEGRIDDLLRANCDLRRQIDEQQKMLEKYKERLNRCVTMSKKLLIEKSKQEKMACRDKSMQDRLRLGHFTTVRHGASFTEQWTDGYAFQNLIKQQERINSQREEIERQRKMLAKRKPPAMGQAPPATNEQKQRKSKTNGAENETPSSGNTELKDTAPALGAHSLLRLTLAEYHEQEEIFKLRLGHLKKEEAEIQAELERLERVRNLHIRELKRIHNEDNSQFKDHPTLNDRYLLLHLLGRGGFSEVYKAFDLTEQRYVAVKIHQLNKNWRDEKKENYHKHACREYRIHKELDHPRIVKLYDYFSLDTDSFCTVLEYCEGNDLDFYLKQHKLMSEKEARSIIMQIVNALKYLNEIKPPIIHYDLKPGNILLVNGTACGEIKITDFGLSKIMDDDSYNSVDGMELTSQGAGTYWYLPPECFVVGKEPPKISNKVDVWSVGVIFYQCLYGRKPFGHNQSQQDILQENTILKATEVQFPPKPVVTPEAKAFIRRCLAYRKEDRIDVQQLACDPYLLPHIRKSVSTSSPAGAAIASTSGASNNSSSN

CC(C)CCC(=O)[C@]1(O)C(O)=C(C(=O)C(C)C)C(=O)[C@H]1CCC(C)C [TH2, tetrahydroiso-cohumulone]
kinase inhibition (Aurora-A(h); 1 μg/ml): 65% of control | kinase inhibition (Aurora-A(h); 5 μg/ml): 24% of control | kinase inhibition (Aurora-A(h); 25 μg/ml): 71% of control | kinase inhibition (Aurora-A(h); 50 μg/ml): 57% of control | kinase inhibition (Aurora-A(h); 100 μg/ml): 54% of control | kinase inhibition (CDK6/cydinD3(h); 1 μg/ml): 120% of control | kinase inhibition (CDK6/cydinD3(h); 5 μg/ml): 109% of control | kinase inhibition (CDK6/cydinD3(h); 25 μg/ml): 117% of control | kinase inhibition (CDK6/cydinD3(h); 50 μg/ml): 105% of control | kinase inhibition (CDK6/cydinD3(h); 100 μg/ml): 92% of control | kinase inhibition (CHK2(h); 1 μg/ml): 107% of control | kinase inhibition (CHK2(h); 5 μg/ml): 107% of control | kinase inhibition (CHK2(h); 25 μg/ml): 105% of control | kinase inhibition (CHK2(h); 50 μg/ml): 108% of control | kinase inhibition (CHK2(h); 100 μg/ml): 97% of control | kinase inhibition (FGFR2(N549H)(h); 1 μg/ml): 110% of control | kinase inhibition (FGFR2(N549H)(h); 5 μg/ml): 102% of control | kinase inhibition (FGFR2(N549H)(h); 25 μg/ml): 103% of control | kinase inhibition (FGFR2(N549H)(h); 50 μg/ml): 103% of control | kinase inhibition (FGFR2(N549H)(h); 100 μg/ml): 82% of control | kinase inhibition (FGFR3(h); 1 μg/ml): 94% of control | kinase inhibition (FGFR3(h); 5 μg/ml): 92% of control | kinase inhibition (FGFR3(h); 25 μg/ml): 67% of control | kinase inhibition (FGFR3(h); 50 μg/ml): 64% of control | kinase inhibition (FGFR3(h); 100 μg/ml): 51% of control | kinase inhibition (MAPK1(h), ERK1; 1 μg/ml): 93% of control | kinase inhibition (MAPK1(h), ERK1; 5 μg/ml): 83% of control | kinase inhibition (MAPK1(h), ERK1; 25 μg/ml): 72% of control | kinase inhibition (MAPK1(h), ERK1; 50 μg/ml): 75% of control | kinase inhibition (MAPK1(h), ERK1; 100 μg/ml): 67% of control | kinase inhibition (MAPKAP-K3(h); 1 μg/ml): 101% of control | kinase inhibition (MAPKAP-K3(h); 5 μg/ml): 100% of control | kinase inhibition (MAPKAP-K3(h); 25 μg/ml): 109% of control | kinase inhibition (MAPKAP-K3(h); 50 μg/ml): 104% of control | kinase inhibition (MAPKAP-K3(h); 100 μg/ml): 101% of control | kinase inhibition (MELK(h); 1 μg/ml): 116% of control | kinase inhibition (MELK(h); 5 μg/ml): 104% of control | kinase inhibition (MELK(h); 25 μg/ml): 102% of control | kinase inhibition (MELK(h); 50 μg/ml): 98% of control | kinase inhibition (MELK(h); 100 μg/ml): 83% of control | kinase inhibition (NEK2(h); 1 μg/ml): 106% of control | kinase inhibition (NEK2(h); 5 μg/ml): 109% of control | kinase inhibition (NEK2(h); 25 μg/ml): 105% of control | kinase inhibition (NEK2(h); 50 μg/ml): 102% of control | kinase inhibition (NEK2(h); 100 μg/ml): 72% of control | kinase inhibition (PKBβ(h); 1 μg/ml): 104% of control | kinase inhibition (PKBβ(h); 5 μg/ml): 97% of control | kinase inhibition (PKBβ(h); 25 μg/ml): 68% of control | kinase inhibition (PKBβ(h); 50 μg/ml): 43% of control | kinase inhibition (PKBβ(h); 100 μg/ml): 31% of control | kinase inhibition (Plk3(h); 1 μg/ml): 120% of control | kinase inhibition (Plk3(h); 5 μg/ml): 105% of control | kinase inhibition (Plk3(h); 25 μg/ml): 104% of control | kinase inhibition (Plk3(h); 50 μg/ml): 99% of control | kinase inhibition (Plk3(h); 100 μg/ml): 86% of control | kinase inhibition (Ret(V804M)(h); 1 μg/ml): 107% of control | kinase inhibition (Ret(V804M)(h); 5 μg/ml): 104% of control | kinase inhibition (Ret(V804M)(h); 25 μg/ml): 110% of control | kinase inhibition (Ret(V804M)(h); 50 μg/ml): 94% of control | kinase inhibition (Ret(V804M)(h); 100 μg/ml): 88% of control | kinase inhibition (SIK(h); 1 μg/ml): 102% of control | kinase inhibition (SIK(h); 5 μg/ml): 99% of control | kinase inhibition (SIK(h); 25 μg/ml): 104% of control | kinase inhibition (SIK(h); 50 μg/ml): 89% of control | kinase inhibition (SIK(h); 100 μg/ml): 62% of control | kinase inhibition (SRPK1(h); 1 μg/ml): 47% of control | kinase inhibition (SRPK1(h); 5 μg/ml): 89% of control | kinase inhibition (SRPK1(h); 25 μg/ml): 61% of control | kinase inhibition (SRPK1(h); 50 μg/ml): 53% of control | kinase inhibition (SRPK1(h); 100 μg/ml): 45% of control | kinase inhibition (TLK2(h); 1 μg/ml): 98% of control | kinase inhibition (TLK2(h); 5 μg/ml): 89% of control | kinase inhibition (TLK2(h); 25 μg/ml): 106% of control | kinase inhibition (TLK2(h); 50 μg/ml): 94% of control | kinase inhibition (TLK2(h); 100 μg/ml): 98% of control
